Where a name gives a salt, the structure may show the parent alone. Read-outs that look alike come from different tables or passages of the source.
Legend:
[1] = biological target: T1, type α4β2 central nicotinic receptors (Rattus norvegicus, UniProt P09483+P12390); assay: Displacement of binding of [3H]-cytisine on type α4β2 nicotinic receptors of rat brain
T1 construct: from tissue; host or cells: rat brain membranes
Protocol: This study, carried out according to the technique described in Molec. Pharmacol., 1990, 39; 9-12, is aimed at determining the affinity of compounds of the present invention for type α4β2 central nicotinic receptors.
Membranes (250 μg/ml) of rat brain are incubated (2 hours, 20° C.) in the presence of a series of concentrations (0.01-10 μM) of each compound of the present invention (diluted starting from a 10 mM stock solution in DMSO) and [^3H]-cytisine (S.A.: 1184 GBq/mmol: 2 nM) in phosphate buffer (NaH2PO4 20 mM, pH 7.4); final volume: 250 μl. The non-specific binding is determined by incubating membranes in the presence of 10 μM of (−)nicotine. The affinity of the compounds of the present invention for type α4β2 central nicotinic receptors is characterised by determination of the Ki.

[2] = system: abdominal cramps caused by PBQ; assay: Abdominal contractions induced by phenyl-p-benzoquinone (PBQ) in the NMRI mouse; format: in vivo; details: 10 mg/kg IP
Protocol: Intraperitoneal administration of an alcoholic solution of PBQ causes abdominal cramps in the mouse (Proc. Soc. Exp. Biol., 1957, 95, 729-731). The cramps are characterised by repeated contractions of the abdominal musculature, accompanied by extension of the hind limbs. Most analgesics antagonise these abdominal cramps (Brit. J. Pharmacol. Chem., 1968, 32, 295-310). At t=0 min., the animals are weighed and the compound being studied is administered by the IP route. A group of control animals is given the solvent used for the compound. At t=30 min., an alcoholic solution of PBQ (0.2%) is administered by the IP route in a volume of 0.25 ml/mouse. Immediately after administration of the PBQ, the animals are placed in cylinders of plexiglass (L=19.5 cm; I.D.=5 cm). From t=35 min. to t=45 min., the animals' reaction is observed and the experimenter notes the total number of abdominal cramps per animal. The results are expressed as the percentage inhibition of the number of abdominal cramps measured in the control animals, at the active dose of the compound studied.

[3] = system: social recognition (memorisation); assay: Social recognition in the Wistar rat; format: in vivo; details: 3 mg/kg IP, 2 hours after administration
Description: Initially described in 1982 (J. Comp. Physiol., 1982, 96, 1000-1006), the social recognition test has subsequently been proposed by various authors (Psychopharmacology, 1987, 91, 363-368; Psychopharmacology, 1989, 97, 262-268) for studying the mnemocognitive effects of new compounds. The test is based on the natural expression of the olfactory memory of the rat and its natural tendency to forget and allows evaluation of memorisation, by recognition of a young congeneric animal, by an adult rat. A young rat (21 days), taken at random, is placed for 5 minutes in the cage housing an adult rat. With the aid of a video device, the experimenter observes the social recognition behaviour of the adult rat and measures its overall duration. The young rat is then removed from the adult rat's cage and is placed in its own cage until the second introduction. The adult rat is given the compound under test by the intraperitoneal route and, after 2 hours, is again brought into the presence (5 minutes) of the young rat. The social recognition behaviour is then observed again and its duration measured. The assessment criterion is the difference (T2−T1), expressed in seconds, between the “recognition” times of the 2 encounters.

[4] = system: release of acetylcholine in the prefrontal cortex; assay: In vivo measurement of the release of acetylcholine by intra-cortical microdialysis in the conscious Wistar rat; design: dose or concentration left out as unconfirmed; details: one hour after administration
Protocol: The systemic administration of nicotine and nicotinic agonists causes an increase, in vivo, of acetylcholine in various regions of the brain (Neurochem. Res., 1996, 21, 1181-1186; Eur. J. Pharmacol., 1998, 351, 181-188; Br. J. Pharmacol., 1999, 127, 1486-1494). A microdialysis probe is implanted in the median prefrontal cortex of male Wistar rats. Six or seven days after they have been implanted, the probes are perfused with Ringer's solution (NaCl 147 mM, KCl 2.7 mM, CaCl2 1.2 mM, MgCl2 1 mM, neostigmine 20 nM) at a flow rate of 1 μl/min, the animal being free to move. After 2 hours in the animal quarters, the product under test is administered by the intraperitoneal route. A group of control animals receives the solvent used for the product. The dialysates (30 μl) are then collected every 30 minutes for 4 hours in order to measure the cortical extra-synaptic concentrations of acetylcholine by means of HPLC with amperometric detection. The results are expressed in pg of acetylcholine/dialysate, and inter-group comparisons are carried out by means of variance analysis using 2 factors (treatment×time), with measurements being repeated over time.

[5] = system: object recognition (memorisation); assay: Object recognition in the Wistar rat; format: in vivo; details: 0.3 mg/kg PO, 2nd session 24 hours later
Description: The object recognition test in the Wistar rat (Behav. Brain Res., 1988, 31, 47-59) is based on the spontaneous exploratory activity of the animal and has the characteristics of episodic memory in humans. Sensitive to ageing (Eur. J. Pharmacol., 1997, 325, 173-180), as well as to cholinergic dysfunctions (Pharm. Biochem. Behav., 1996, 5(2), 277-283), this memory test is based on the differential exploration of 2 objects of fairly similar size, one familiar and the other new. Before the test, the animals are accustomed to the environment (enclosure without object). During a 1st session, the rats are placed (for 3 minutes) in an enclosure containing 2 identical objects. The duration of exploration of each object is measured. During the second session (3 minutes), 24 hours later, 1 of the 2 objects is replaced by a new object. The duration of exploration of each object is measured. The assessment criterion is the difference Delta, expressed in seconds, between the exploration times of the new object and the familiar object during the 2nd session.

[6] = biological target: type α7 central nicotinic receptors (Rattus norvegicus, UniProt Q05941); assay: biochemical; format: binding
Chain of type α7 central nicotinic receptors (Q05941 23-502): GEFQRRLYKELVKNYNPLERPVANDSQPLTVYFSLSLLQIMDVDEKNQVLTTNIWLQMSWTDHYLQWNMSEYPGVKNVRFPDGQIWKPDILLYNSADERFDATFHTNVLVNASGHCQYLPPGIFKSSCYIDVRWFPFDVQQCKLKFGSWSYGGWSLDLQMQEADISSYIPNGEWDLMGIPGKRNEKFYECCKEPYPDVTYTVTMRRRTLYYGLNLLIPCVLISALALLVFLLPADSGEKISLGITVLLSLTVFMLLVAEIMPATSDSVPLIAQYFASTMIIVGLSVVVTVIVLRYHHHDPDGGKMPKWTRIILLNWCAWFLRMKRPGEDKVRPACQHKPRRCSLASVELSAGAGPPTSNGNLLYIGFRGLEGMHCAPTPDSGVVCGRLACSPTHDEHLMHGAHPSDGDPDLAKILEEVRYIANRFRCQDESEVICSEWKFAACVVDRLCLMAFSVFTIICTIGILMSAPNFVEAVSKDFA

T1 sequence (P09483 31-630): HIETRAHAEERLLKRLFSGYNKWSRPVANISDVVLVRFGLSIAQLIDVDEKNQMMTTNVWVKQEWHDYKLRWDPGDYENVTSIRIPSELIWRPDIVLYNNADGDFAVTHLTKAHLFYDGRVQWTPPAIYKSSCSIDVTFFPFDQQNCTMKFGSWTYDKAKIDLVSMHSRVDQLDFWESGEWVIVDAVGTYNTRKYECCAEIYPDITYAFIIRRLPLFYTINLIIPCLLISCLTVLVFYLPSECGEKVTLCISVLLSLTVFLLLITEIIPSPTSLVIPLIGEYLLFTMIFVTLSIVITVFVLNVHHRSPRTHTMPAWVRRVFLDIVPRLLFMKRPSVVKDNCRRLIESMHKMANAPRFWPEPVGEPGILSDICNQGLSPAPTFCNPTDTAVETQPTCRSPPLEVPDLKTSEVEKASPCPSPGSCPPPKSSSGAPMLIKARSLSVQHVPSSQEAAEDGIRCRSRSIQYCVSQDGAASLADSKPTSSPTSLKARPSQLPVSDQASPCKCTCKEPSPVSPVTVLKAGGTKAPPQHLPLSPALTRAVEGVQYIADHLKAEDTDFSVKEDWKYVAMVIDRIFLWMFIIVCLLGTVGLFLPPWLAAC
T1 sequence (P12390 25-500): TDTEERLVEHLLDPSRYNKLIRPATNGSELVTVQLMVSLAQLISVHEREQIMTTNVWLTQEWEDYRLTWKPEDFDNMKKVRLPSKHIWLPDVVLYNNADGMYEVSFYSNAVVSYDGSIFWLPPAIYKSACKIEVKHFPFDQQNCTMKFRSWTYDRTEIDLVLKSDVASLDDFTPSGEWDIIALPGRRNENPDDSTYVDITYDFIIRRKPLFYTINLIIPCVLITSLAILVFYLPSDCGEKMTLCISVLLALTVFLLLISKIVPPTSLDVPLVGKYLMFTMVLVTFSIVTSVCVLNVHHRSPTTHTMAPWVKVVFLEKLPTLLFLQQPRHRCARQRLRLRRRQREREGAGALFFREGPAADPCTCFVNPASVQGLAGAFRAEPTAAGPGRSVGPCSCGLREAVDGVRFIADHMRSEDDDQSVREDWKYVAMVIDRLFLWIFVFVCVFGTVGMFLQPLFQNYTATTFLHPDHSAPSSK

For `CN(C)C1(CN(Cc2ccccc2)c2ccc(Cl)nc2)CC1.Cl`, the melting point was 190 to 192 °C.

For `CN(C)C1(CNc2cccnc2)CC1.Cl.Cl`, the melting point was 208 to 210 °C.

In the case of `CNC1(CN(C)c2ccc(Cl)nc2)CC1` [Example 10, 6-Chloro-N-methyl-N-{[1-(methylamino)cyclopropyl)methylpyridin-3-aminedihydrochloride], the Ki ([1]; [3H]-cytisine, rat brain membranes, read-out: Ki, type α4β2 central nicotinic receptors) is reported as 16 nM and the “reduction of the number of abdominal cramps caused by PBQ” value (shortened to “reduction”) [2] is reported as −69%.

In the case of `Cl.Cl.NC1(CNc2cccnc2)CC1` [Example 4, N-[(1-Aminocyclopropyl)methyl]pyridin-3-amine dihydrochloride], the melting point is reported as 195 to 199 °C and the “difference (T2−T1) between recognition times” value [3] is reported as 19 s.

In the case of `CN(CC1(N)CC1)c1cccnc1.Cl.Cl`, the melting point is reported as 218 to 222 °C.

In the case of `CNC1(CNc2cccnc2)CC1.Cl.Cl` [Example 1, N-{[1-(Methylamino)cyclopropyl]methyl}pyridin-3-amine dihydrochloride], the Ki [1] is reported as 34 nM, the melting point is reported as 190 to 195 °C and the “increase in the release of acetylcholine in the prefrontal cortex” value [4] is reported as “+70%”. For the same compound, the “difference Delta between exploration times of new and familiar object” value [5] was 9 s, the “difference (T2−T1) between recognition times” value [3] was 36 s and the “reduction” value [2] was −50%.

In the case of `CNC1(CNc2ccc(Cl)nc2)CC1.Cl.Cl` [Example 9], the “reduction” value [2] is reported as −52%.

For `CN(CC1(N(C)C)CC1)c1ccc(Cl)nc1.Cl.Cl`, the melting point was 163 to 166 °C.

For `CNC1(CN(C)c2cccnc2)CC1.Cl.Cl` [Example 2, N-Methyl-N-{[1-(methylamino)cyclopropyl]methyl}pyridin-3-amine dihydrochloride], the Ki [1] was 15 nM, the melting point was 180 to 184 °C and the “increase in the release of acetylcholine in the prefrontal cortex” value [4] was “+80%”. For the same compound, the “difference Delta between exploration times of new and familiar object” value [5] was 4 s, the “difference (T2−T1) between recognition times” value [3] was 29 s and the Ki [6] was 8.3 µM. For the same compound, the “reduction” value [2] was −76%.

With `CNC1(CNc2ccc(C)nc2)CC1.Cl.Cl` the melting point was 230 to 232 °C.

Compound `CNC1(CN(C)c2ccc(C)nc2)CC1.Cl.Cl` has a melting point of 112 to 115 °C.

For `CNC1(CN(C)c2ccc(Cl)nc2)CC1` (as salt: hydrochloride) [Example 10, 6-Chloro-N-methyl-N-{[1-(methylamino)cyclopropyl)methylpyridin-3-aminedihydrochloride], the melting point was 133 to 136 °C.

Compound `CN(C)C1(CNc2ccc(Cl)nc2)CC1.Cl.Cl` has a melting point of 158 to 160 °C.

Work on `CN(CC1(N(C)C)CC1)c1cccnc1.Cl.Cl` yielded a melting point of 198 to 201 °C.

For `CNC1(CN(Cc2ccccc2)c2ccc(Cl)nc2)CC1.Cl.Cl`, the melting point was 156 to 157 °C.

For `CNC1(CN(C)c2ccc(Br)nc2)CC1.O=C(O)/C=C/C(=O)O`, the melting point was 146 to 150 °C.

From patent US7388022B2, “Polysubstituted 1,1-pyridylaminocyclopropanamine compounds” (priority 2005, dated 2008)
